From US20090181963A1, “3H-[1,2,3]TRIAZOLO[4,5-D]PYRIMIDINE COMPOUNDS, THEIR USE AS mTOR KINASE AND PI3 KINASE INHIBITORS, AND THEIR [sequence]” (Wyeth, priority 2008, published 2009)

What was measured:
[1] = target: PI3 Kinase α (Homo sapiens, UniProt P42336); assay: Fluorescence polarization assay for PI3K (PI3 Kinase α); type: biochemical; settings: diC8-PI(4,5)P2 substrate, 25 μM ATP, one hour at 25° C.
[2] = target: PI3 Kinase γ (Homo sapiens, UniProt P48736); assay: Fluorescence polarization assay for PI3K (PI3 Kinase γ); type: biochemical; settings: diC8-PI(4,5)P2 substrate, 25 μM ATP, one hour at 25° C.
Sequence of PI3 Kinase γ (P48736 whole entry): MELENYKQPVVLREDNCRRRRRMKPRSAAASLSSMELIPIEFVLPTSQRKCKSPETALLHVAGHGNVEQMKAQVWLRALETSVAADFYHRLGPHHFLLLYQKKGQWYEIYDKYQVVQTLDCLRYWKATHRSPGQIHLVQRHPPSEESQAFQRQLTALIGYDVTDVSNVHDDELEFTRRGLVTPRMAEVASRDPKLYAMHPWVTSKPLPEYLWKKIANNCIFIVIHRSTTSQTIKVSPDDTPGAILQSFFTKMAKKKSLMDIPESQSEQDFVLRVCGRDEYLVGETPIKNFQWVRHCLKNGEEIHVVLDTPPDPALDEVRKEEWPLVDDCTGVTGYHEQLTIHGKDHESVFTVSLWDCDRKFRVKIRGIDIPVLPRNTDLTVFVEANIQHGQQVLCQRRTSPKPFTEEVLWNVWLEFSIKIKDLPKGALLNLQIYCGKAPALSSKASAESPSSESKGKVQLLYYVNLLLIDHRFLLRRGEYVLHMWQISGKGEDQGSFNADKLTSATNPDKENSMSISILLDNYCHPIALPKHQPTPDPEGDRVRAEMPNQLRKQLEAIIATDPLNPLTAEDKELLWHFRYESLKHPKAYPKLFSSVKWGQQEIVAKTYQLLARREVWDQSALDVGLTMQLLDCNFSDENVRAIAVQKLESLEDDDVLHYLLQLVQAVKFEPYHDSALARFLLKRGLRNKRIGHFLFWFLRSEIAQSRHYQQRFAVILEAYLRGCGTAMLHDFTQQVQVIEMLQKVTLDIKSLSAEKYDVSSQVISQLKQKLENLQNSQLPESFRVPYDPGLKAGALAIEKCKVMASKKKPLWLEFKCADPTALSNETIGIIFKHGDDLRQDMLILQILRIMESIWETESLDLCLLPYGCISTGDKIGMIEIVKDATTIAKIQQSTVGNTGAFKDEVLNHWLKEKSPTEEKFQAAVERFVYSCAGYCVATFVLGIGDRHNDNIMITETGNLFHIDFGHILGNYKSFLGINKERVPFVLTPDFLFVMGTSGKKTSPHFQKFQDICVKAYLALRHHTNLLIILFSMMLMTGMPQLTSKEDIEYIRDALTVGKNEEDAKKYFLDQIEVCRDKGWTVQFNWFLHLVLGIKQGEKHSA
Method: Nunc 384 well black polypropylene fluorescent plates were used for PI3K assays. Reactions were quenched by the addition of EDTA to a final concentration of 10 μM. Final reaction volumes were 10 ml. […] Reactions were allowed to proceed for one hour at 25° C. After I hour, GST-tagged GRP1 (general receptor for phosphoinositides) PH domain fusion protein was added to a final concentration of 100 nM, and BODIPY-TMRI(1,3,4,5)P4 (Echelon) was also added to a final concentration of 5 nM. Final sample volumes were 25 μl with a final DMSO concentration of 0.8%. Assay Plates were read on PerkinElmer Envision plate readers with appropriate filters for Tamra [BODIPY-TMRI(1,3,4,5)P4]. Data obtained were used to calculate enzymatic activity and enzyme inhibition by inhibitor compounds.

Sequence of PI3 Kinase α (P42336 whole entry): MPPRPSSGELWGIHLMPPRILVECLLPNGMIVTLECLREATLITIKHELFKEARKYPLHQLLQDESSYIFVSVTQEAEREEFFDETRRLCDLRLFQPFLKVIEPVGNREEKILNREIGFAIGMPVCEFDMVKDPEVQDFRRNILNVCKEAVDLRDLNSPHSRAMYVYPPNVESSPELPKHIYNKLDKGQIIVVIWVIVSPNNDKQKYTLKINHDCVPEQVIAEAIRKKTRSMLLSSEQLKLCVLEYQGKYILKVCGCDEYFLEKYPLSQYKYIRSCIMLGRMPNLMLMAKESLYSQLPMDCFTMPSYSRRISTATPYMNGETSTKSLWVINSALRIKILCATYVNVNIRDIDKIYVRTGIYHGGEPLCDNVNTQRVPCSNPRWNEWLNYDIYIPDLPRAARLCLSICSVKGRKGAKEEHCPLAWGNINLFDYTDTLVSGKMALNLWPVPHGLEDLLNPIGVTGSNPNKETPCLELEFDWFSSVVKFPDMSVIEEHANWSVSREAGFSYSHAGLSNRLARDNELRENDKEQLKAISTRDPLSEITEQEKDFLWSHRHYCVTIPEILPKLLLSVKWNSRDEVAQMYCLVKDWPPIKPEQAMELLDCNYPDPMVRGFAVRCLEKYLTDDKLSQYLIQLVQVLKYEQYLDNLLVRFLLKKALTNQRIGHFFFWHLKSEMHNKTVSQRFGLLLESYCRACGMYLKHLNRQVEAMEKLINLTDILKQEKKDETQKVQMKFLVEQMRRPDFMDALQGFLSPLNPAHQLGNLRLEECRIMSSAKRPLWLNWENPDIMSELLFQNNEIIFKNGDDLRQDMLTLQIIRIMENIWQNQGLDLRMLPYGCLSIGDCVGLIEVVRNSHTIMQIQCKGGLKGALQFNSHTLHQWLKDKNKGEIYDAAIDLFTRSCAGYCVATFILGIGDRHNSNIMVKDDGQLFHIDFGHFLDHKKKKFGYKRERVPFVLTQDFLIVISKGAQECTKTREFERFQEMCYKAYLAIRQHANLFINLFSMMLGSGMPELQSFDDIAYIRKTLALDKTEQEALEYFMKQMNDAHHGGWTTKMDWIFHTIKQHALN
Sequence of PI3 Kinase α (P27986 whole entry partner): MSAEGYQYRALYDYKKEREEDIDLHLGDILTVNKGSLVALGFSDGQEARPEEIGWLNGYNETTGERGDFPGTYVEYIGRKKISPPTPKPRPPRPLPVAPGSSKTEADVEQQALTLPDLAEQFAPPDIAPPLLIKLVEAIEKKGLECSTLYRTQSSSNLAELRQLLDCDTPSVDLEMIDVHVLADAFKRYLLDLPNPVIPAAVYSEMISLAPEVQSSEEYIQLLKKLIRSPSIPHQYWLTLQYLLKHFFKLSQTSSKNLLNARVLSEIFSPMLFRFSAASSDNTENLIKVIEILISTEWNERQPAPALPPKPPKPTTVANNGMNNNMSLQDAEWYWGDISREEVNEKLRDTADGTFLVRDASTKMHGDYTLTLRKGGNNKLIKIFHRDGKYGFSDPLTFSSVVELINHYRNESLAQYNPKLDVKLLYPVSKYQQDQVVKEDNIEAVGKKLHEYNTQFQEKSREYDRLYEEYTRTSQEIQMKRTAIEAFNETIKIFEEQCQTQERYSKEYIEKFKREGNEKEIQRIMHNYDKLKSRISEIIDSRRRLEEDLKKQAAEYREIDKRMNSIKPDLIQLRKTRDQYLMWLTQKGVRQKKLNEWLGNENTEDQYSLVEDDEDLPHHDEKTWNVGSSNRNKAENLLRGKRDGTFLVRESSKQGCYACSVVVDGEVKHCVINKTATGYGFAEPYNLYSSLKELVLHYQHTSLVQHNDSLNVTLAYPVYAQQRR

| Compound | IC50 [1] | IC50 [2] |
| --- | --- | --- |
| O=C(O)Cn1nnc2c(N3CCOCC3)nc(-c3cccc(CO)c3)nc21 [Example 240, {5-[3-(hydroxymethyl)phenyl]-7-morpholin-4-yl-3H-[1,2,3]triazolo[4,5-d]pyrimidin-3-yl}acetic acid] | 658 nM | 1700 nM |
| CCCCN1CCN(CCn2nnc3c(N4CCOCC4)nc(-c4cccc(O)c4)nc32)CC1 [Example 107, 3-{3-[2-(4-butylpiperazin-1-yl)ethyl]-7-morpholin-4-yl-3H-[1,2,3]triazolo[4,5-d]pyrimidin-5-yl}phenol] | 1040 nM | 2490 nM |
| CCCCNC(=O)c1ccc(NC(=O)Nc2ccc(-c3nc(N4CCOCC4)c4nnn(CC)c4n3)cc2)cc1 [Example 62, N-butyl-4-({[4-(3-ethyl-7-morpholin-4-yl-3H-[1,2,3]triazolo[4,5-d]pyrimidin-5-yl)phenyl]carbamoyl}amino)benzamide] | 6 nM | 33 nM |
| CCn1nnc2c(N3CCOCC3)nc(-c3ccc(NC(=O)Nn4cnnc4)cc3)nc21 [Example 36, 1-[4-(3-ethyl-7-morpholin-4-yl-3H-[1,2,3]triazolo[4,5-d]pyrimidin-5-yl)phenyl]-3-(4H-1,2,4-triazol-4-yl)urea] | 179 nM | 895 nM |
| CC(C)(C)OC(=O)N1CC(Cn2nnc3c(N4CCOCC4)nc(-c4ccc(NC(=O)Nc5ccccc5)cc4)nc32)C1 [Example 188, tert-butyl 3-[(7-morpholin-4-yl-5-{4-[(phenylcarbamoyl)amino]phenyl}-3H-[1,2,3]triazolo[4,5-d]pyrimidin-3-yl)methyl]azetidine-1-carboxylate] | 19.5 nM | 518 nM |
| CC(C)(C)OC(=O)N1CCN(CCn2nnc3c(N4CCOCC4)nc(-c4cccc(O)c4)nc32)CC1 [Example 97, tert-butyl 4-{2-[5-(3-hydroxyphenyl)-7-morpholin-4-yl-3H-[1,2,3]triazolo[4,5-d]pyrimidin-3-yl]ethyl}piperazine-1-carboxylate] | 1020 nM | 4360 nM |
| CCn1nnc2c(N3CCOCC3)nc(-c3ccc(NC(=O)Nc4ccc(C(=O)NCCCN5CCN(C)CC5)cc4)cc3)nc21 [Example 55, 4-({[4-(3-ethyl-7-morpholin-4-yl-3H-[1,2,3]triazolo[4,5-d]pyrimidin-5-yl)phenyl]carbamoyl}amino)-N-[3-(4-methylpiperazin-1-yl)propyl]benzamide] | 1.5 nM | 16.5 nM |
| CCn1nnc2c(N3CCOCC3)nc(-c3ccc(NC(=O)Nc4ccc(C(=O)O)cc4)cc3)nc21 [Example 42, 4-({[4-(3-ethyl-7-morpholin-4-yl-3H-[1,2,3]triazolo[4,5-d]pyrimidin-5-yl)phenyl]carbamoyl}amino)benzoic acid] | 10.5 nM | 35.3 nM |
| CC(C)n1nnc2c(N3CCOCC3)nc(-c3ccc(NC(=O)NCCN(C)C)cc3)nc21 [Example 88, 1-[2-(dimethylamino)ethyl]-3-[4-(3-isopropyl-7-morpholin-4-yl-3H-[1,2,3]triazolo[4,5-d]pyrimidin-5-yl)phenyl]urea] | 77.5 nM | 197 nM |
| CC(C)n1nnc2c(N3CCOCC3)nc(-c3ccc(NC(=O)Nc4ccc(C(N)=O)cc4)cc3)nc21 [Example 93, 4-{3-[4-(3-isopropyl-7-morpholin-4-yl-3H-[1,2,3]triazolo[4,5-d]pyrimidin-5-yl)-phenyl]-ureido}-benzamide] | 2.5 nM | 18 nM |
| NCCCCn1nnc2c(N3CCOCC3)nc(-c3cccc(O)c3)nc21 [Example 204, 3-[3-(4-Aminobutyl)-7-morpholin-4-yl-3H-[1,2,3]triazolo[4,5-d]pyrimidin-5-yl]phenol] | 132 nM | 108 nM |
| Oc1cncc(-c2nc(N3CCOCC3)c3nnn(C4CCN(CN5CCN(Cc6ccccc6)CC5)CC4)c3n2)c1 [Example 28, 5-(3-{1-[(4-benzylpiperazin-1-yl)methyl]piperidin-4-yl}-7-morpholin-4-yl-3H-[1,2,3]triazolo[4,5-d]pyrimidin-5-yl)pyridin-3-ol] | 998 nM | 8830 nM |
| Oc1cncc(-c2nc(N3CCOCC3)c3nnn(C4CCNCC4)c3n2)c1 [Example 12, 5-(7-morpholin-4-yl-3-piperidin-4-yl-3H-[1,2,3]triazolo[4,5-d]pyrimidin-5-yl)pyridin-3-ol] | 80 nM | 168 nM |
| O=C(Nc1ccncc1)Nc1ccc(-c2nc(N3CCOCC3)c3nnn(CC(F)(F)F)c3n2)cc1 [Example 134, 1-{4-[7-morpholin-4-yl-3-(2,2,2-trifluoroethyl)-3H-[1,2,3]triazolo[4,5-d]pyrimidin-5-yl]phenyl}-3-pyridin-4-ylurea] | 2 nM | 25.5 nM |
| COC(Cn1nnc2c(N3CCOCC3)nc(-c3ccc(NC(=O)Nc4ccc(C)cc4)cc3)nc21)OC [Example 179, 1-{4-[3-(2,2-dimethoxyethyl)-7-morpholin-4-yl-3H-[1,2,3]triazolo[4,5-d]pyrimidin-5-yl]phenyl}-3-(4-methylphenyl)urea] | 142 nM | 342 nM |
| COC(Cn1nnc2c(N3CCOCC3)nc(-c3ccc(NC(=O)Nc4ccc(F)cc4)cc3)nc21)OC [Example 180, 1-{4-[3-(2,2-dimethoxyethyl)-7-morpholin-4-yl-3H-[1,2,3]triazolo[4,5-d]pyrimidin-5-yl]phenyl}-3-(4-fluorophenyl)urea] | 67.5 nM | 152 nM |
| COC(Cn1nnc2c(N3CCOCC3)nc(-c3ccc(NC(=O)Nc4cccnc4)cc3)nc21)OC [Example 181, 1-{4-[3-(2,2-dimethoxyethyl)-7-morpholin-4-yl-3H-[1,2,3]triazolo[4,5-d]pyrimidin-5-yl]phenyl}-3-pyridin-3-ylurea] | 58.5 nM | 186 nM |
| COC(Cn1nnc2c(N3CCOCC3)nc(-c3ccc(N)cc3)nc21)OC [Example 178, 4-[3-(2,2-dimethoxyethyl)-7-morpholin-4-yl-3H-[1,2,3]triazolo[4,5-d]pyrimidin-5-yl]aniline] | 1340 nM | > 10000 nM |
| O=C(Nc1ccccc1)Nc1ccc(-c2nc(N3CCOCC3)c3nnn(CC4CN(Cc5ccc(F)cc5)C4)c3n2)cc1 [Example 192, 1-[4-(3-{[1-(4-fluorobenzyl)azetidin-3-yl]methyl}-7-morpholin-4-yl-3H-[1,2,3]triazolo[4,5-d]pyrimidin-5-yl)phenyl]-3-phenylurea] | 148 nM | 549 nM |
| O=C(Nc1ccc(-c2nc(N3CCOCC3)c3nnn(CC(F)(F)F)c3n2)cc1)Nc1cccs1 [Example 141, 1-{4-[7-morpholin-4-yl-3-(2,2,2-trifluoroethyl)-3H-[1,2,3]triazolo[4,5-d]pyrimidin-5-yl]phenyl}-3-(2-thienyl)urea] | 6.5 nM | 30 nM |
| CCn1nnc2c(N3CCOCC3)nc(-c3ccc(NC(=O)Nc4ccc(C(=O)NCCCN(C)C)cc4)cc3)nc21 [Example 47, N-[3-(dimethylamino)propyl]-4-({[4-(3-ethyl-7-morpholin-4-yl-3H-[1,2,3]triazolo[4,5-d]pyrimidin-5-yl)phenyl]carbamoyl}amino)benzamide] | < 2.7 nM | 9 nM |
| O=C(Nc1ccccc1)Nc1ccc(-c2nc(N3CCOCC3)c3nnn(CC4CN(Cc5ccccc5)C4)c3n2)cc1 [Example 191, 1-(4-{3-[(1-benzylazetidin-3-yl)methyl]-7-morpholin-4-yl-3H-[1,2,3]triazolo[4,5-d]pyrimidin-5-yl}phenyl)-3-phenylurea] | 91 nM | 329 nM |
| COC(=O)NC(=O)Nc1ccc(-c2nc(N3CCOCC3)c3nnn(C4CCN(C(=O)OC(C)(C)C)CC4)c3n2)cc1 [Example 169, tert-butyl 4-[5-(4-{[(methoxycarbonyl)carbamoyl]amino}phenyl)-7-morpholin-4-yl-3H-[1,2,3]triazolo[4,5-d]pyrimidin-3-yl]piperidine-1-carboxylate] | > 10000 nM | > 10000 nM |
| O=C(Nc1ccc(-c2nc(N3CCOCC3)c3nnn(C4CCN(Cc5ccccc5)CC4)c3n2)cc1)C(F)(F)F [Example 5, N-{4-[3-(1-benzylpiperidin-4-yl)-7-morpholin-4-yl-3H-[1,2,3]triazolo[4,5-d]pyrimidin-5-yl]phenyl}-2,2,2-trifluoroacetamide] | 68 nM | 133 nM |
| CC(C)(C)C(=O)Nc1ncccc1CN1CCC(n2nnc3c(N4CCOCC4)nc(-c4cncc(O)c4)nc32)CC1 [Example 25, N-[3-({4-[5-(5-hydroxypyridin-3-yl)-7-morpholin-4-yl-3H-[1,2,3]triazolo[4,5-d]pyrimidin-3-yl]piperidin-1-yl}methyl)pyridin-2-yl]-2,2-dimethylpropanamide] | 143 nM | 407 nM |
| CN(C)CCCOc1ccc(CN2CCC(n3nnc4c(N5CCOCC5)nc(-c5ccc(NC(=O)NCCN(C)C)cc5)nc43)CC2)cc1 [Example 162, 1-(2-(dimethylamino)ethyl)-3-(4-(3-(1-(4-(3-(dimethylamino)propoxy)benzyl)piperidin-4-yl)-7-morpholino-3H-[1,2,3]triazolo[4,5-d]pyrimidin-5-yl)phenyl)urea] | 11.5 nM | 104 nM |
| CN(C)CCCOc1ccc(CN2CCC(n3nnc4c(N5CCOCC5)nc(-c5cncc(O)c5)nc43)CC2)cc1 [Example 17, 5-[3-(1-{4-[3-(dimethylamino)propoxy]benzyl}piperidin-4-yl)-7-morpholin-4-yl-3H-[1,2,3]triazolo[4,5-d]pyrimidin-5-yl]pyridin-3-ol] | 217 nM | 370 nM |
| COC(=O)c1cccc(-n2nnc3c(N4CCOCC4)nc(-c4cccc(C=O)c4)nc32)c1 [Example 116, methyl 3-[5-(3-formylphenyl)-7-morpholin-4-yl-3H-[1,2,3]triazolo[4,5-d]pyrimidin-3-yl]benzoate] | > 10000 nM | > 10000 nM |
| O=C(Nc1ccc(CCO)cc1)Nc1ccc(-c2nc(N3CCOCC3)c3nnn(CC(F)(F)F)c3n2)cc1 [Example 138, 1-[4-(2-hydroxyethyl)phenyl]-3-{4-[7-morpholin-4-yl-3-(2,2,2-trifluoroethyl)-3H-[1,2,3]triazolo[4,5-d]pyrimidin-5-yl]phenyl}urea] | 3 nM | 12.5 nM |
